Where a name gives a salt, the structure may show the parent alone.
Key:
STAT 6 [1] = biological target: T1, STAT 6 (Mus musculus, UniProt P52633); assay: STAT 6-dependent reporter activity (IL-4-stimulated CI/FW4 luciferase reporter cell); assay type: cell-based, human; settings: for inhibition at 0.1 µM / Inh (%) 0.1 μM: inhibition ratio at 0.1 μM compound; for inhibition at 0.1 µM / inhibition at 1 µM / Inh (%) 0.1 μM / Inh (%) 1 μM: IL-4-stimulated CI/FW4 cell, luciferase; for inhibition at 1 µM / Inh (%) 1 μM: inhibition ratio at 1 μM compound; for inhibition of STAT 6-dependent reporter activity (activity similar to the compounds of Table 26): CI/FW4 cell, 10 ng/ml human IL-4, luciferase
T1 construct: An STAT 6 reporter cell CI/FW4 was constructed by the above operation; endogenous in cells; host or cells: CI/FW4 (FW4 cell stably carrying the pGL2-CI/bs luciferase reporter)
T1 sequence (P52633 1-837): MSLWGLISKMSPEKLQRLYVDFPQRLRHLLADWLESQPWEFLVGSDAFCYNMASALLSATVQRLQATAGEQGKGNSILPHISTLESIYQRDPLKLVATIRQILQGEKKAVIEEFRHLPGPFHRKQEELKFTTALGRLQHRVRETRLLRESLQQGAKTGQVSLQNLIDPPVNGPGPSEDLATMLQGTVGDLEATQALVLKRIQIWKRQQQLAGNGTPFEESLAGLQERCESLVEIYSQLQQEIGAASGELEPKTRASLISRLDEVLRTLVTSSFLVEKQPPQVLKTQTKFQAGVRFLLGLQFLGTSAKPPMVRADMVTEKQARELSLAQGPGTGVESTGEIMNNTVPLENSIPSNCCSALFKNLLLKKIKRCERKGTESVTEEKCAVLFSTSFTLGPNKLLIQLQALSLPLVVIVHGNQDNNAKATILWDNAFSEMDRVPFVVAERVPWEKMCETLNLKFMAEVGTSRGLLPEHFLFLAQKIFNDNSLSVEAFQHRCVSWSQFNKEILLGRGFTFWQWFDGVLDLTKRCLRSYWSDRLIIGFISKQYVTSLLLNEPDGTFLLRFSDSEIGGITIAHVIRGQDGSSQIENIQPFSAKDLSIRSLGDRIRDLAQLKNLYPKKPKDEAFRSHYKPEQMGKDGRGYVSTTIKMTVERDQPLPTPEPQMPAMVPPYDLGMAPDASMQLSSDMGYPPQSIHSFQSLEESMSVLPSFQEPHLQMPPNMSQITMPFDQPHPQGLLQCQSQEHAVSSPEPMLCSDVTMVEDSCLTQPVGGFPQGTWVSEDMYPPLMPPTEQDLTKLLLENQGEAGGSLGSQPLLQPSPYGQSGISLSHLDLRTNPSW
Method: Measurement of STAT 6-Dependent Reporter Activity 1) Construction of STAT 6 Reactive Reporter Plasmid A STAT 6 reporter plasmid pGL2-CI was prepared by the following method. […] Also, […] sequence DNA molecules (SEQ ID NOs:3 and 4) contained in the adenovirus major late promoter were annealed and inserted into BglII and HindIII sites of the same vector. Thereafter, pGL2-CI/bs was constructed by inserting the blasticidin resistance gene of pUCSV-BD (Funakoshi) into BamHI site of the constructed pGL2-CI. 2) Construction of STAT 6 Reporter Cell Gene transfer of […] into a human IL-4 reactive cell FW4 cell (Mol. Cell. Biol., 14: 5433-5440) was carried out by the electroporation method (320 V, 960 μF/0.4 cm cuvette (Nippon Bio-Rad Laboratories)), and 6 μg/ml of blasticidin (Funakoshi) was added 40 hours thereafter to select a resistant cell. Confirmation of constant transfer of the reporter plasmid was carried out by detecting luciferase induce by IL-4 stimulation. An STAT 6 reporter cell CI/FW4 was constructed by the above operation. 3) STAT Reporter Assay Using CI/FW4 Cell Stimulation of the CI/FW4 cell (1×10^4 cells/0.1 ml) with 10 ng/ml of human IL-4 (Genzyme Techne) was carried out using a white 96 well plate (Nunc). In the case of the evaluation of compounds, compound dilutions were added to the wells before inoculating the cells into the 96 well plate. […] Thereafter, 50 μl of a luciferase substrate solution (10 mM Tris-HCl pH 7.8, 5 mM luciferin, 2 mM coenzyme A, 2 mM ATP, 0.5 mM MgCl2 and 2 mM Mg(OH)2) was added, followed by stirring for 1 minute. Then, the luciferase activity was measured using ML3000 luminometer (Dynatech Laboratories, Inc). Inhibitory activities of tested compounds were evaluated in which the luminescence intensity (relative light unit: […] The results are shown in the following Table 26.

STAT 6 [2] = biological target: T2, STAT 6 (Homo sapiens, UniProt P42226); assay: STAT 6 tyrosine phosphorylation in IL-4-stimulated H292 cell (western blotting); assay type: cell-based; settings: 1 μM compound, 10 ng/ml human IL-4, disappearance of the about 110 kDa band
T2 construct: host or cells: H292
T2 sequence (P42226 1-847): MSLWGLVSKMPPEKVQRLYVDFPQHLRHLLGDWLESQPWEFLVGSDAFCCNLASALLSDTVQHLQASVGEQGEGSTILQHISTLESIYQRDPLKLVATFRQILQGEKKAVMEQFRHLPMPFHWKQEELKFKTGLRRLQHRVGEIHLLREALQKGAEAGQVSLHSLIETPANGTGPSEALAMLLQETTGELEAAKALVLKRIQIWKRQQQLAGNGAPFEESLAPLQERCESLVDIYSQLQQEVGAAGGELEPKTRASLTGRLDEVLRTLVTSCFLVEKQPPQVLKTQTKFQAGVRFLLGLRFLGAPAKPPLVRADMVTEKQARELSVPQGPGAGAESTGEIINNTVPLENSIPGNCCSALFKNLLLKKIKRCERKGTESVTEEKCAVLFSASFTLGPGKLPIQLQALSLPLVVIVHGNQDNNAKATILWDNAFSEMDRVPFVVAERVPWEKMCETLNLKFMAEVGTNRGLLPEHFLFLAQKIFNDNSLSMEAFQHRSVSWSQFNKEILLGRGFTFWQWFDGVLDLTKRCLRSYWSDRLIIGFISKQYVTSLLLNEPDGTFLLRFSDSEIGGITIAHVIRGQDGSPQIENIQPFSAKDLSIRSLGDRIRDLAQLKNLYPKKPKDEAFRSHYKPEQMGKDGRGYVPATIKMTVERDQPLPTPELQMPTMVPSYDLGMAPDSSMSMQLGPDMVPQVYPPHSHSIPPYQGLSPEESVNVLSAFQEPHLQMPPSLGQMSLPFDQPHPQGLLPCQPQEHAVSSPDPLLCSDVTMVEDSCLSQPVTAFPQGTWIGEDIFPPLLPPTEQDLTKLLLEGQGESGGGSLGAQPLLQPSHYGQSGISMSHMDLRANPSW
Method: Measurement of STAT 6 Tyrosine Phosphorylation
The H292 cell (ATCC) (5×10^5 cells/0.5 ml) was inoculated into a 12 well plate (IWAKI) and cultured overnight, and then stimulation with 10 ng/ml of human IL-4 (Genzyme techne) was carried out. In the case of the evaluation of compounds, compound dilutions were added to the wells 20 minutes before the IL-4 stimulation. Also, regarding the dilution of compounds, dilution was carried out using 10% FBS-containing RPMI 1640 such that the final concentration of DMSO in which each compound was dissolved became 0.1% or less. This was washed three times with ice-cooled physiological phosphate buffer 20 minutes after the IL-4 stimulation. After the washing, 100 μl/well of a cell lysis solution (TNE buffer: 10 mM Tris-HCl pH 7.8, 1% NP-40, 0.15 M NaCl, 1 mM EDTA, 10 μg/ml aprotinin, 1 mM NaF and 1 mM Na3VO4) was added. The cell lysate was recovered, and 15 μl thereof was subjected to western blotting after SDS electrophoresis using an anti-tyrosine phosphorylated STAT 6 antibody (Cell Signaling). Whether or not the tyrosine phosphorylation band of about 110 kDa is disappeared, which is IL-4 stimulation-dependently detected, was judged. Also, uniform transference of the STAT 6 protein was confirmed using the same transfer membrane by western blotting which used an anti-STAT 6 antibody (SantaCruz).

Compound	inhibition at 0.1 µM (STAT 6 [1]) [%]	inhibition at 1 µM (STAT 6 [1]) [%]	Inh (%) 0.1 μM (STAT 6 [1]) [%]	Inh (%) 1 μM (STAT 6 [1]) [%]	inhibition of STAT 6-dependent reporter activity (activity similar to the compounds of Table 26) (STAT 6 [1])	inhibition of STAT 6 tyrosine phosphorylation (STAT 6 [2])
CNC(=O)c1cnc(NCCc2cc(Cl)c(O)c(Cl)c2)nc1Nc1cccc(C)c1 [Example 2, 2-{[2-(3,5-dichloro-4-hydroxyphenyl)ethyl]amino}-N-methyl-4-[(3-methylphenyl)amino]pyrimidine-5-carboxamide]	48	96	–	–	–	–
NC(=O)c1cnc(Nc2ccc(N3CCOCC3)cc2)nc1NCc1cc(Cl)ccc1F [Example 39]	–	–	100	100	–	–
NC(=O)c1cnc(Nc2ccc(N3CCOCC3)cc2)nc1NCc1c(F)cccc1Cl [Example 58]	–	–	–	–	good activity	–
CN(C)CC(=O)N1CCN(c2ccc(Nc3ncc(C(N)=O)c(NCc4ccccc4)n3)cc2)CC1.Cl.Cl [Example 148]	–	–	94	100	–	completely inhibited
CN(CC1CN(c2ccc(Nc3ncc(C(N)=O)c(NCc4ccccc4)n3)cc2)CCO1)S(C)(=O)=O.Cl (stereo not drawn) [Example 180]	–	–	91	100	–	–
CCOC(=O)CN1CCN(c2ccc(Nc3ncc(C(N)=O)c(NCc4c(F)ccc(F)c4F)n3)cc2)CC1 [Example 189]	–	–	100	100	–	completely inhibited
NC(=O)c1cnc(Nc2ccc(N3CCN(CC(=O)O)CC3)cc2)nc1NCc1c(F)ccc(F)c1F [Example 190]	–	–	100	100	–	completely inhibited
Cl.NC(=O)c1cnc(Nc2ccc(N3CCCOCC3)cc2)nc1NCc1c(F)ccc(F)c1F [Example 191]	–	–	100	100	–	completely inhibited
COC1CCCN(c2ccc(Nc3ncc(C(N)=O)c(NCc4c(F)ccc(F)c4F)n3)cc2)C1.Cl.Cl (stereo not drawn) [Example 192]	–	–	100	100	–	completely inhibited
Cl.Cl.NC(=O)CN1CCN(c2ccc(Nc3ncc(C(N)=O)c(NCc4c(F)ccc(F)c4F)n3)cc2)CC1 [Example 201]	–	–	100	100	–	completely inhibited
NC(=O)c1cnc(Nc2ccc(OC3OC(CO)C(O)C(O)C3O)cc2)nc1NCc1c(F)ccc(F)c1F (stereo not drawn) [Example 233]	–	–	25	100	–	–
NC(=O)c1cnc(Nc2ccc(N3CCOCC3)c(F)c2)nc1NCc1ccccc1 [Example 239]	–	–	–	–	good activity	–
NC(=O)c1cnc(Nc2ccc(N3CCOCC3)c(F)c2)nc1NCc1c(F)cccc1F [Example 244]	–	–	97	100	–	–
Cc1cccc(Nc2nc(NCCc3ccc(O)c(Br)c3)ncc2C(N)=O)c1 [Production Example 1, 2-{[2-(3-bromo-4-hydroxyphenyl)ethyl]amino}-4-[(3-methylphenyl)amino]pyrimidine-5-carboxamide]	67	100	–	–	–	–
Cc1cccc(Nc2nc(Nc3ccc(CN(C)C)cc3)ncc2C(N)=O)c1 [Production Example 9, 2-({4-[(dimethylamino)methyl]phenyl}amino)-4-[(3-methylphenyl)amino]pyrimidine-5-carboxamide dihydrochloride]	33	91	–	–	–	–
NC(=O)c1cnc(Nc2ccc(N3CCOCC3)cc2)nc1NC1CCCCC1 [Production Example 12, 4-cyclohexylamino-2-[(4-morpholinophenyl)amino]pyrimidine-5-carboxamide]	91	100	–	–	–	–

Source: patent publication US8012959B2, “Diaminopyrimidinecarboxamide derivative” (Astellas Pharma Inc., priority 2002, dated 2011)
